Our source for the IC50 values is patent US7935706B2, “Nitrogen-containing heterocycle derivatives substituted with cyclic group” (Shionogi & Co., Ltd., priority 2006, dated 2011).

Structures are written as SMILES. pIC50: −log10 of the molar value.

T1 sequence (Q00960 27-1482, other chains not shown): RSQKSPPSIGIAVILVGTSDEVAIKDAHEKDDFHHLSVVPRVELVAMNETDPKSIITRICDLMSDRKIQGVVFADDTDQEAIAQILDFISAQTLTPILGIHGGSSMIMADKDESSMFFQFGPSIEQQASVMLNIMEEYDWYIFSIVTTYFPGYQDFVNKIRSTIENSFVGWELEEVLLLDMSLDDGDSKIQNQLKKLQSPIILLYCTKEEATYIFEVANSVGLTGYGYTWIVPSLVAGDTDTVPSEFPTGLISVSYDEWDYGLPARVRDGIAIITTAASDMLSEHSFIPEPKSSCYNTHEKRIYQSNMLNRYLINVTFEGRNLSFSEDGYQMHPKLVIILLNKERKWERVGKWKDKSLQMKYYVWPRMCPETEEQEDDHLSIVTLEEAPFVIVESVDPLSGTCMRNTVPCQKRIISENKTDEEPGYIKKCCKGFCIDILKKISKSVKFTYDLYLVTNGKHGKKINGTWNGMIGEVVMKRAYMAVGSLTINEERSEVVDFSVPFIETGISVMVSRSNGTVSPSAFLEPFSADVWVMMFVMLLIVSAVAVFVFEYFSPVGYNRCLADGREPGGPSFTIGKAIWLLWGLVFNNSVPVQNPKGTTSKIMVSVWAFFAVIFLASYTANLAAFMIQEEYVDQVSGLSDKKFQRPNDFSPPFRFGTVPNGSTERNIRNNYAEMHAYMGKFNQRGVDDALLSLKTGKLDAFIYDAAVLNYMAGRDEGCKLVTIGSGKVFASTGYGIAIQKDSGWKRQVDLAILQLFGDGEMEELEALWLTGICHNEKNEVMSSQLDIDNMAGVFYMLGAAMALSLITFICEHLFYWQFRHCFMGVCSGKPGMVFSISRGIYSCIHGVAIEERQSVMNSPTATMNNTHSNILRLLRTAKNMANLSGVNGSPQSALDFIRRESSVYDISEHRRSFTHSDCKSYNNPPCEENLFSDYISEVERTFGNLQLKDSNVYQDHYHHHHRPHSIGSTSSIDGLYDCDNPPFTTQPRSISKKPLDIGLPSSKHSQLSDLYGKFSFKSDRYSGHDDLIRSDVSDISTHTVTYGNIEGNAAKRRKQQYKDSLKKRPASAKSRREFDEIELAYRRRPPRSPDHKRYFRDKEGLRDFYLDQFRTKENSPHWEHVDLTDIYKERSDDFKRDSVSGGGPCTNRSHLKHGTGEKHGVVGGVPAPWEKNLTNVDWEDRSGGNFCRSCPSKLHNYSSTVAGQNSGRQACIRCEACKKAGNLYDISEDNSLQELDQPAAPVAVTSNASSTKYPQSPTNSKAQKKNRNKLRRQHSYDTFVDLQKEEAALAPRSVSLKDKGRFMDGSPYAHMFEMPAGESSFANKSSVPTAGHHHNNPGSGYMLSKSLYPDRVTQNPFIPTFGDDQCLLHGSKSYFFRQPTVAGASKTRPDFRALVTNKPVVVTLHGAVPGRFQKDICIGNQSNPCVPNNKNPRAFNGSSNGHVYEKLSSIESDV

The first assay concerns the target T1, NR1/NR2B receptor (Rattus norvegicus, UniProt P35439+Q00960).
T1 construct: from tissue; host or cells: rat cerebral cortex membranes (male Slc: Wistar rat)
The assay can be described thus: Test of binding with NMDA receptor (NR1/NR2B receptor): competition with [3H]-Ifenprodil on rat cerebral cortex membrane specimen. The conditions noted are these: [3H]-Ifenprodil 5 nM, GBR-12909 3 μM, rat cerebral cortex membranes, ice temperature 120 minutes; read-out: NR2B (IC50 μM). As for the experimental part: Test of Binding with NMDR Receptor (NR1/NR2B Receptor)
Using Ifenprodil which is an antagonist specific for a NR1/NR2B subtype receptor as a ligand, an experiment of competition between a receptor and a test compound was performed.
Using a male Slc: Wistar rat as an animal, a brain was isolated after decapitation, and a cerebral cortex was fractionated. The cerebral cortex was homogenized with a 20-fold amount of an ice-cooled 50 mM Tris/HCl buffer (pH 7.4), and the homogenate was centrifuged at 4° C. and 27,500×g for 10 minutes. The resulting precipitate was suspended in the same buffer, and this was again centrifuged. This operation was repeated for three times, the resulting precipitate was suspended in a buffer, and this was stored at −80° C. Immediately before an experiment, the frozen suspension was thawed at room temperature, this was centrifuged at 4° C. and 27,500×g for 10 minutes, and the resulting precipitate was suspended in a buffer. Further, the suspension was diluted 10-fold with a buffer, and this was used as a membrane specimen in an experiment. In a binding experiment, to 470 μl of the membrane specimen were added […] of each of test compounds having different concentrations, 10 μl of a labeled ligand [^3H]-Ifenprodil and 10 μl GBR-12909, followed by incubation at an ice temperature for 120 minutes. A concentration of [^3H]-Ifenprodil of the labeled ligand was finally 5 nM, and a concentration of GBR-12909 was finally 3 μM. For measuring a total binding amount, DMSO as a solvent was used and, for measuring a non-specific binding amount, 100 μM Ifenprodil was used. GBR-12909 was added in order to block binding of [^3H]-Ifenprodil to non-polyamine-sensitive site. After incubation, a bound formand a free foramwere separated using Whatman GF/C filter (manufactured by Whatman), and the filter was washed with 2.5 ml ice-cooled buffer four times. The filter was immersed in liquid scintillation (Cryasol I, manufactured by Nacalai tesque), and radioactivity (dpm) was measured with a liquid scintillation counter. From a measured value, a binding inhibition rate (%) was obtained by the following equation, and a dose at which binding is inhibited 50% (IC50) was calculated. A formula of GBR-12909 (vanoxerine) is shown below.
Binding inhibition rate(%)=100−[(binding amount in the presence of test compound−non-specific binding amount)/(total binding amount−non-specific binding amount)]×100
The IC50 is the concentration that inhibits the measured activity by half. Turning to `O=C(CCC1CCN(c2ccc(C(F)(F)F)cc2)CC1)Nc1ccc(=O)[nH]c1` [Compound I-21], the IC50 amounted to 0.096 µM.
`O=C(Nc1ccc2[nH]c(=O)oc2c1)NC1CCN(c2ccc(C(F)(F)F)cc2)CC1` [Compound I-23]: the IC50 came to 0.04 µM.
The same measure, in the same setting: in the case of `O=C(CC1(O)CCN(c2ccc(C(F)(F)F)cc2)CC1)Nc1ccc2[nH]c(=O)oc2c1` [Compound I-30] it was 0.077 µM.
The same measure, in the same setting: as for `O=C(Nc1ccc2[nH]c(=O)oc2c1)C(F)=C1CCN(c2ccc(C(F)(F)F)cc2)CC1` [Compound I-42], the figure is 0.107 µM; as for `O=C(C=C1CCN(c2ccc(C(F)(F)F)cn2)CC1)Nc1ccc2[nH]c(=O)oc2c1` [Compound I-43], 0.017 µM.
Take `O=C(Nc1ccc2[nH]c(=O)oc2c1)C(=O)N1CCN(c2ccc(C(F)(F)F)cc2)CC1` [Compound I-55]: the IC50 was determined as 0.025 µM.
For the molecule `O=C(CC1(O)CCN(c2ccc(C(F)(F)F)cc2)CC1)Nc1ccc2[nH]c(=O)sc2c1` [Compound I-70], the IC50 was found to be 0.068 µM.
Regarding `O=C(Nc1ccc2[nH]c(=O)[nH]c2c1)C(=O)N1CCN(c2ccc(F)cc2)CC1` [Compound I-85], the IC50 amounted to 0.067 µM.
Take `O=C(C=C1CCN(c2ccc(Cl)c(F)c2)CC1)Nc1ccc2[nH]c(=O)oc2c1` [Compound I-188]: the IC50 is 0.021 µM.
On the same count and under the same terms, as for `O=C(C=C1CCN(c2ccc(F)c(F)c2)CC1)Nc1ccc2[nH]c(=O)oc2c1` [Compound I-192], the figure is 0.052 µM; as for `O=C(Nc1ccc2[nH]c(=O)oc2c1)C(=O)N1CCN(c2ccc(C(F)(F)F)nc2)CC1` [Compound I-198], 0.073 µM.
Still for that read-out and setting: as for `O=C1Cc2cc(NC(=O)C(=O)N3CCN(c4ccc(Cl)c(F)c4)CC3)ccc2N1` [Compound I-200], the figure is 0.081 µM; as for `O=C1Cc2cc(NC(=O)C(=O)N3CCN(c4ccc(C(F)(F)F)c(F)c4)CC3)ccc2N1` [Compound I-201], 0.074 µM.

The same assay, now with this note: same binding test; read-out: IC50 (binding with NR1/NR2B receptor).
Turning to `O=C(C=C1CCN(c2ccc(Cl)cn2)CC1)Nc1ccc2[nH]c(=O)oc2c1` [Compound I-45], the pIC50 is at least 7.00.
`O=C(CC1CCN(c2ccc(OC(F)(F)F)cc2)CC1)Nc1ccc2[nH]c(=O)oc2c1` [Compound I-226]: the pIC50 was at least 7.00.
Turning to `COc1ccc(N2CCN(C(=O)C(=O)Nc3ccc4[nH]c(=O)oc4c3)CC2)cc1F` [Compound I-232], the pIC50 is at least 7.00.
Same read-out and setting: in the case of `O=C(CN1CCN(c2ccc(C(F)(F)F)cc2)CC1)Nc1ccc2[nH]c(=O)oc2c1` [Compound I-235] it was at least 7.00; in that of `O=C(CC1CCN(c2ccc(OC(F)F)cc2)CC1)Nc1ccc2[nH]c(=O)oc2c1` [Compound I-239], at least 7.00.
Still for that read-out and setting: in the case of `C[C@@H]1CN(c2ccc(Cl)cn2)CCN1C(=O)C(=O)Nc1ccc2[nH]c(=O)oc2c1` [Compound I-241] it was at least 7.00.

The target in the next assay is T2, NMDA receptor (NR1 subunit and NR2B subunit) (Mus musculus, UniProt P35438+Q01097).
T2 construct: expressed in transfected cells; host or cells: HEK293 cells, transient transfection with pcDNA3.1 plasmids
T2 sequence (Q01097 27-1482, other chains not shown): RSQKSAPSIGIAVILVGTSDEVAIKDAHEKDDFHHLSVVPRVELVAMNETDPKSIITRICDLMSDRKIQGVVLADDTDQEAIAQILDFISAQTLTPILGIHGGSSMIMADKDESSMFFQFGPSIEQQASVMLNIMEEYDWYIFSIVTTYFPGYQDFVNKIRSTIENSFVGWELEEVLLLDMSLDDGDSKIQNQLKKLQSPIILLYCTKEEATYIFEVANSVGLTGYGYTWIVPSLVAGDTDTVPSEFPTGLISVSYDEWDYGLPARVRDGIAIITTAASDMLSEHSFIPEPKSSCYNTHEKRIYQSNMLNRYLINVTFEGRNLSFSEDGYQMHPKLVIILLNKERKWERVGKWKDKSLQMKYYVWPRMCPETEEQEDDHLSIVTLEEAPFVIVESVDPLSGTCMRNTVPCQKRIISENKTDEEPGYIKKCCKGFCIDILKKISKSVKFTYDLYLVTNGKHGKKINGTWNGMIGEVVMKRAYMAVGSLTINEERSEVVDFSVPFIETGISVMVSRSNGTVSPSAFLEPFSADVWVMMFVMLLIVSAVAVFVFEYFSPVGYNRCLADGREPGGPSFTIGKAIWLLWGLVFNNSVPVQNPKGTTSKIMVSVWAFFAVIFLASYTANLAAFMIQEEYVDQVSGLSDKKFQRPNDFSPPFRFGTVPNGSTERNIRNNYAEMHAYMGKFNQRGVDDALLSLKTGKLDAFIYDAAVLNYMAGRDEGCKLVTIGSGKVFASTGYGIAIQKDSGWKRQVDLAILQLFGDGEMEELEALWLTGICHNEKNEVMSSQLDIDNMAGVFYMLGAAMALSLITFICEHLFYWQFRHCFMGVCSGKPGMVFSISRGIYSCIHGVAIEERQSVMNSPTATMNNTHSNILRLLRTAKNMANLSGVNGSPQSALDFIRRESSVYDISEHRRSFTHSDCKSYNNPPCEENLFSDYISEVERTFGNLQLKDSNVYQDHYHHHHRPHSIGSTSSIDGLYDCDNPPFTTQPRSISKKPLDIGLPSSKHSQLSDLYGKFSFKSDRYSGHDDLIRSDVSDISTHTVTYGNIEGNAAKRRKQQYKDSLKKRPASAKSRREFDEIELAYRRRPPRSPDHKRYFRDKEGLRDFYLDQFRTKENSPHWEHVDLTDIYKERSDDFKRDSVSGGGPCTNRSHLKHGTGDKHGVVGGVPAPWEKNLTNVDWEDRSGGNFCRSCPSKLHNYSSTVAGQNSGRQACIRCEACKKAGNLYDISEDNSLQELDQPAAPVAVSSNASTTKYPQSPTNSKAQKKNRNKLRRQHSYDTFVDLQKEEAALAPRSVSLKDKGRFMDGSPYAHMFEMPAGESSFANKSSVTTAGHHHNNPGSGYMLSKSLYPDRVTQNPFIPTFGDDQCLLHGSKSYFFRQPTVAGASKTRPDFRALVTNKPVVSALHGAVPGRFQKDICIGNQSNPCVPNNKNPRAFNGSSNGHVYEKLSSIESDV
As to the kind of experiment: Measurement of expression of NMDA receptor and Ca ion influx amount (glutamic acid/glycine-induced, HEK293 cell co-expressing NR1 and NR2B subunits, Fluo-3/AM). It is filed as cell-based. Particulars: Ca ion influx induced with 20 μM glutamic acid/2 μM glycine, HEK293 cell with mouse NR1/NR2B; read-out: Ca2+ IC50. The protocol:
Measurement of Expression of NMDA Receptor and Ca Ion Influx Amount
A complementary DNA (cDNA) of a mouse NMDA receptor subunit was transiently introduced into a HEK293 cell and, after 1 day from introduction, change in a glutamic acid/glycine-induced intracelluar Ca amount was measured using a Ca ion reactive fluorescent coloring matter.
The HEK293 cell was cultured, and passaged using a modified Dulbecco's Eagle medium (DMEM, low glucose).
The HEK293 cell (20,000/well) was seeded on a 96-well plate, a NR1 subunit and a NR2B subunit of the NMDA receptor incorporated into the pcDNA3.1 plasmid were transiently introduced into a cell, and the subunits were co-expressed. An introduction amount of a DNA was 0.025 μg in the case of the NR1 subunit, and 0.075 μg in the case of NR2B subunit per well. For the cell after introduction, cell death was inhibited using 50 μM of the NMDA receptor antagonist MK-801.
For adjusting a test compound and washing a cell, Krebs/Ringer/Hepes buffer (KRH, Ca: 5 mM) was used.
After 1 day from introduction, the NMDA receptor antagonist MK-801 was washed out using the KRH buffer, and a Ca ion indication fluorescent coloring matter Fluo-3/AM was made to be taken into the cell. Ca ion influx was induced with 20 μM glutamic acid/2 μM glycine. Change in a fluorescent amount due to Ca ion influx into the cell was measured at excitation of 480 nm using a fluorescent imaging system FDSS 3000.
From a measured value of the test compound, a Ca ion influx inhibition rate (%) was obtained by the following equation, and a dose at which influx is inhibited 50% (IC50) was calculated.
Ca ion influx inhibition rate(%)=100−[(fluorescent amount in the presence of test compound−background fluorescent amount)/(total fluorescent amount−background fluorescent)]×100
As for `O=C(CC1CCN(c2ccc(C(F)(F)F)cc2)CC1)Nc1ccc2[nH]c(=O)oc2c1` [Compound I-8], the pIC50 is 7.32.
Regarding `O=C(NCC1CCN(c2ccc(C(F)(F)F)cc2)CC1)c1ccc2[nH]c(=O)oc2c1` [Compound I-11], the pIC50 was 7.16.
On the same count and under the same terms, as for `O=C(C=C1CCN(c2ccc(C(F)(F)F)cc2)CC1)Nc1ccc2[nH]c(=O)oc2c1` [Compound I-16], the figure is 7.43; as for `O=C(CCC1CCN(c2ccc(C(F)(F)F)cc2)CC1)Nc1ccc(=O)[nH]c1` [Compound I-21], 7.43; as for `O=C(Nc1ccc2[nH]c(=O)oc2c1)NC1CCN(c2ccc(C(F)(F)F)cc2)CC1` [Compound I-23], 7.60.
On the same count and under the same terms, in the case of `O=C(Nc1ccc2[nH]c(=O)oc2c1)C(O)C1CCN(c2ccc(C(F)(F)F)cc2)CC1` (centres unmarked) [Compound I-25] it was 7.20; in that of `O=C(Nc1ccc2[nH]c(=O)oc2c1)C(=O)C1CCN(c2ccc(C(F)(F)F)cc2)CC1` [Compound I-26], 7.32; in that of `O=C(CC1(O)CCN(c2ccc(C(F)(F)F)cc2)CC1)Nc1ccc2[nH]c(=O)oc2c1` [Compound I-30], 8.40.
Same read-out and setting: in the case of `O=C(C=C1CCN(c2ccc(F)cc2)CC1)Nc1ccc2[nH]c(=O)oc2c1` [Compound I-33] it was 7.43; in that of `O=C(CC1(O)CCN(c2ccc(Cl)cc2)CC1)Nc1ccc2[nH]c(=O)oc2c1` [Compound I-34], 7.70; in that of `CC(C)c1ccc(N2CCC(O)(CC(=O)Nc3ccc4[nH]c(=O)oc4c3)CC2)cc1` [Compound I-40], 7.82.
For `O=C(C=C1CCN(c2cc(C(F)(F)F)ccn2)CC1)Nc1ccc2[nH]c(=O)oc2c1` [Compound I-41], the pIC50 is 7.04.
Still for that read-out and setting: in the case of `O=C(Nc1ccc2[nH]c(=O)oc2c1)C(F)=C1CCN(c2ccc(C(F)(F)F)cc2)CC1` [Compound I-42] it was 7.89; in that of `O=C(C=C1CCN(c2ccc(C(F)(F)F)cn2)CC1)Nc1ccc2[nH]c(=O)oc2c1` [Compound I-43], 8.05; in that of `O=C(C=C1CCN(c2ccc(Cl)cn2)CC1)Nc1ccc2[nH]c(=O)oc2c1` [Compound I-45], 7.64.
Turning to `O=C(CC1=CCN(c2ccc(C(F)(F)F)cc2)CC1)Nc1ccc2[nH]c(=O)oc2c1` [Compound I-53], the pIC50 is 7.17.
For `O=C(Nc1ccc2[nH]c(=O)oc2c1)C(=O)N1CCN(c2ccc(C(F)(F)F)cc2)CC1` [Compound I-55], the pIC50 is 8.15.
In the case of `O=C(CC1(O)CCN(c2ccc(C(F)(F)F)cc2)CC1)Nc1ccc2[nH]c(=O)sc2c1` [Compound I-70], the pIC50 is 7.82.
The same measure, in the same setting: as for `O=C(Nc1cnc2[nH]c(=O)oc2c1)C(=O)N1CCN(c2ccc(C(F)(F)F)cc2)CC1` [Compound I-74], the figure is 7.41.
Still for that read-out and setting: as for `O=C(NCC1=CCN(c2ccc(C(F)(F)F)cc2)CC1)c1ccc2[nH]c(=O)sc2c1` [Compound I-78], the figure is 7.51; as for `O=C(CC1(O)CCN(c2ccc(F)c(C(F)(F)F)c2)CC1)Nc1ccc2[nH]c(=O)sc2c1` [Compound I-80], 7.28.
`O=C(CC1(O)CCN(c2ccc(F)c(C(F)(F)F)c2)CC1)Nc1ccc2[nH]c(=O)oc2c1` [Compound I-81]: the pIC50 is 7.21.
The same measure, in the same setting: as for `O=C(Nc1ccc2[nH]c(=O)sc2c1)C(=O)N1CCN(c2ccc(F)cc2)CC1` [Compound I-89], the figure is 7.06.
Consider `O=C(Nc1cnc2[nH]c(=O)oc2c1)C(=O)N1CCN(c2ccc(Br)cc2)CC1` [Compound I-94], for which the pIC50 is 7.29.
Still for that read-out and setting: in the case of `O=C(Nc1ccc2[nH]c(=O)oc2c1)C(=O)N1CCN(c2ccc(F)c(Cl)c2)CC1` [Compound I-110] it was 8.05.
In the case of `O=C(NCC1CCN(c2ccc(OC(F)(F)F)cc2)CC1)c1ccc2[nH]c(=O)oc2c1` [Compound I-122], the pIC50 was 7.62.
As for `O=C(NCC1CCN(c2ccc(Cl)c(Cl)c2)CC1)c1ccc2[nH]c(=O)oc2c1` [Compound I-138], the pIC50 is 7.36.
With `O=C(NCC1CCN(c2ccc(Cl)c(F)c2)CC1)c1ccc2[nH]c(=O)oc2c1` [Compound I-140], the pIC50 was 7.36.
Consider `O=C(Nc1cnc2[nH]c(=O)oc2c1)C(=O)N1CCCN(c2ccc(Cl)c(F)c2)CC1` [Compound I-155], for which the pIC50 is 7.28.
The same measure, in the same setting: in the case of `O=C(CC1(O)CCN(c2ccc(Cl)c(Cl)c2)CC1)Nc1cnc2[nH]c(=O)oc2c1` [Compound I-197] it was 7.23.

Staying with this assay, now noted: same Ca ion influx test; read-out: IC50 (Ca ion influx inhibition).
With `O=C(Nc1cnc2[nH]c(=O)oc2c1)C(=O)N1CCN(c2ccc(Cl)cc2)CC1` [Compound I-76], the pIC50 is at least 7.00.
On the same count and under the same terms, in the case of `O=C(Nc1cnc2[nH]c(=O)oc2c1)C(=O)N1CCN(c2ccc(F)c(Cl)c2)CC1` [Compound I-111] it was at least 7.00.
On the same count and under the same terms, in the case of `C[C@H]1CN(C(=O)C(=O)Nc2ccc3[nH]c(=O)oc3c2)CCN1c1ccc(Cl)cc1` [Compound I-176] it was at least 7.00; in that of `C[C@@H]1CN(C(=O)C(=O)Nc2ccc3[nH]c(=O)oc3c2)CCN1c1ccc(OC(F)(F)F)cc1` [Compound I-212], at least 7.00.
